Reference: patent US20170008921A1, “C-3 NOVEL TRITERPENONE WITH C-28 REVERSE AMIDE DERIVATIVES AS HIV INHIBITORS” (HETERO RESEARCH FOUNDATION, priority 2015, published 2017)
Where a name gives a salt, the structure may show the parent alone. Read-outs that look alike come from different tables or passages of the source.

Experiment: Cyto-toxicity (MTT assay)
Format: cell-based
Procedure: On day 1 calculate the number of cells required for the assay and seed 3×10^4 cells in 200 μl per well. Weigh the compound and dissolve it in DMSO to get 10 mM stock which is further diluted to 3 mM and 1 mM. […] Add DMSO to controls in a way to obtain final concentration of solvent that is not greater than 1%. Incubate for 4 days in 5% CO2 incubator at 37° C. On day 4, 100 μl of medium was removed from each well without disturbing the cells. Add 10 μl of MTT reagent and incubate for 4 hours at 5% CO2 incubator at 37° C. for formation of crystals. Add 200 μl of 0.1N acidic isopropanol to dissolve the crystals and read the plate at 590 nm. The values are mentioned in below Table-3 and Table-3A.

SMILES: CC(C)C1=C2[C@H]3CC[C@@H]4[C@@]5(C)CC[C@H](OC(=O)[C@H]6C[C@@H](C(=O)O)C6(C)C)C(C)(C)[C@@H]5CC[C@@]4(C)[C@]3(C)CC[C@@]2(NC(=O)C(C)(C)NC(=O)c2nccn2C)CC1=O [Example 16, (1R,3S)-3-((((3aR,5aR,5bR,7aR,9S,11aR,11bR,13aS)-1-isopropyl-5a,5b,8,8,11a-pentamethyl-3a-(2-methyl-2-(1-methyl-1H-imidazole-2-carboxamido)propanamido)-2-oxo-3,3a,4,5,5a,5b,6,7,7a,8,9,10,11,11a,11b,12,13,13a-octadecahydro-2H-cyclopenta[a]chrysen-9-yl)oxy)carbonyl)-2,2-dimethylcyclobutane-1-carboxylic acid]
- viability at 4 days, 0.01 µM: 37%
- viability at 4 days, 0.1 µM: 11%
- viability at 4 days, 1 µM: 2%

SMILES: CC(C)C1=C2[C@H]3CC[C@@H]4[C@@]5(C)CC[C@H](OC(=O)[C@H]6C[C@@H](C(=O)O)C6(C)C)C(C)(C)[C@@H]5CC[C@@]4(C)[C@]3(C)CC[C@@]2(NC(=O)C(C)(C)NC(=O)CN2CCS(=O)(=O)CC2)CC1=O [Example 34, (1R,3S)-3-((((3aR,5aR,5bR,7aR,9S,11aR,11bR,13aS)-3a-(2-(2-(1,1-dioxidothiomorpholino)acetamido)-2-methylpropanamido)-1-isopropyl-5a,5b,8,8,11a-pentamethyl-2-oxo-3,3a,4,5,5a,5b,6,7,7a,8,9,10,11,11a,11b,12,13,13a-octadecahydro-2H-cyclopenta[a]chrysen-9-yl)oxy)carbonyl)-2,2-dimethylcyclobutane-1-carboxylic acid]
- viability at 4 days, 0.01 µM: 26%
- viability at 4 days, 0.1 µM: 10%
- viability at 4 days, 1 µM: 1%

SMILES: CC(C)C1=C2[C@H]3CC[C@@H]4[C@@]5(C)CC[C@H](OC(=O)[C@H]6C[C@@H](C(=O)O)C6(C)C)C(C)(C)[C@@H]5CC[C@@]4(C)[C@]3(C)CC[C@@]2(NC(=O)C(C)(C)NC(=O)[C@@H](N)C(C)C)CC1=O [Example 36, (1R,3S)-3-((((3aR,5aR,5bR,7aR,9S,11aR,11bR,13aS)-3a-(2-((S)-2-amino-3-methylbutanamido)-2-methylpropanamido)-1-isopropyl-5a,5b,8,8,11a-pentamethyl-2-oxo-3,3a,4,5,5a,5b,6,7,7a,8,9,10,11,11a,11b,12,13,13a-octadecahydro-2H-cyclopenta[a]chrysen-9-yl)oxy)carbonyl)-2,2-dimethylcyclobutane-1-carboxylic acid hydrochloride]
- viability at 4 days, 0.01 µM (0.01 μM, MTT, 4 days (Table 3), read-out: Cytotoxicity % viability): 56%
- viability at 4 days, 0.1 µM (0.1 μM, MTT, 4 days (Table 3), read-out: Cytotoxicity % viability): 15%
- viability at 4 days, 1 µM (1 μM, MTT, 4 days (Table 3), read-out: Cytotoxicity % viability): 8%

SMILES: CC(C)C1=C2[C@H]3CC[C@@H]4[C@@]5(C)CC[C@H](OC(=O)[C@H]6C[C@@H](C(=O)O)C6(C)C)C(C)(C)[C@@H]5CC[C@@]4(C)[C@]3(C)CC[C@@]2(NC(=O)C(C)(C)NC(=O)c2ccc(Cl)cc2)CC1=O [Example 1, (1R,3S)-3-((((3aR,5aR,5bR,7aR,9S,11aR,11bR,13aS)-3a-(2-(4-chlorobenzamido)-2-methylpropanamido)-1-isopropyl-5a,5b,8,8,11a-pentamethyl-2-oxo-3,3a,4,5,5a,5b,6,7,7a,8,9,10,11,11a,11b,12,13,13a-octadecahydro-2H-cyclopenta[a]chrysen-9-yl)oxy)carbonyl)-2,2-dimethylcyclobutane-1-carboxylic acid]
- viability at 4 days, 0.01 µM: 57%
- viability at 4 days, 0.1 µM: 10%
- viability at 4 days, 1 µM: 4%

SMILES: CC(C)C1=C2[C@H]3CC[C@@H]4[C@@]5(C)CC[C@H](OC(=O)[C@H]6C[C@@H](C(=O)O)C6(C)C)C(C)(C)[C@@H]5CC[C@@]4(C)[C@]3(C)CC[C@@]2(NC(=O)C(C)(C)NC(=O)[C@@H]2CCCN2C(=O)OC(C)(C)C)CC1=O [Example 8, (1R,3S)-3-((((3aR,5aR,5bR,7aR,9S,11aR,11bR,13aS)-3a-(2-((S)-1-(tert-butoxycarbonyl)pyrrolidine-2-carboxamido)-2-methylpropanamido)-1-isopropyl-5a, 5b,8,8,11a-pentamethyl-2-oxo-3,3a,4,5,5a,5b,6,7,7a,8,9,10,11,11a,11b,12,13,13a-octadeca hydro-2H-cyclopenta[a]chrysen-9-yl)oxy)carbonyl)-2,2-dimethylcyclobutane-1-carboxylic acid]
- viability at 4 days, 0.01 µM: 28%
- viability at 4 days, 0.1 µM: 5%
- viability at 4 days, 1 µM: 3%

SMILES: CC(C)C1=C2[C@H]3CC[C@@H]4[C@@]5(C)CC[C@H](OC(=O)[C@H]6C[C@@H](C(=O)O)C6(C)C)C(C)(C)[C@@H]5CC[C@@]4(C)[C@]3(C)CC[C@@]2(NC(=O)C(C)(C)NC(=O)OC(C)(C)C)CC1=O [Example 75, (1R,3S)-3-((((3aR,5aR,5bR,7aR,9S,11aR,11bR,13aS)-3a-(2-((tert-butoxycarbonyl)amino)-2-methylpropanamido)-1-isopropyl-5a,5b,8,8,11a-pentamethyl-2-oxo-3,3a,4,5,5a,5b,6,7,7a,8,9,10,11,11a,11b,12,13,13a-octadecahydro-2H-cyclopenta[a]chrysen-9-yl)oxy)carbonyl)-2,2-dimethylcyclobutane-1-carboxylic acid]
- viability at 4 days, 0.01 µM: 63%
- viability at 4 days, 0.1 µM: 17%
- viability at 4 days, 1 µM: 2%

SMILES: CC(C)C1=C2[C@H]3CC[C@@H]4[C@@]5(C)CC[C@H](OC(=O)[C@H]6C[C@@H](C(=O)O)C6(C)C)C(C)(C)[C@@H]5CC[C@@]4(C)[C@]3(C)CC[C@@]2(NC(=O)C(C)(C)NC(=O)c2ccco2)CC1=O [Example 26, (1R,3S)-3-((((3aR,5aR,5bR,7aR,9S,11aR,11bR,13aS)-3a-(2-(furan-2-carboxamido)-2-methylpropanamido)-1-isopropyl-5a,5b,8,8,11a-pentamethyl-2-oxo-3,3a,4,5,5a,5b,6,7,7a,8,9,10,11,11a,11b,12,13,13a-octadecahydro-2H-cyclopenta[a]chrysen-9-yl)oxy)carbonyl)-2,2-dimethylcyclobutane-1-carboxylic acid]
- viability at 4 days, 0.01 µM: 55%
- viability at 4 days, 0.1 µM: 20%
- viability at 4 days, 1 µM: 0%

SMILES: Cc1ccc(C(=O)NC2(C(=O)N[C@@]34CC[C@]5(C)[C@H](CC[C@@H]6[C@@]7(C)CC[C@H](OC(=O)[C@H]8C[C@@H](C(=O)O)C8(C)C)C(C)(C)[C@@H]7CC[C@]65C)C3=C(C(C)C)C(=O)C4)CCCCC2)cn1 [Example 49, (1R,3S)-3-((((3aR,5aR,5bR,7aR,9S,11aR,11bR,13aS)-1-isopropyl-5a,5b,8,8,11a-pentamethyl-3a-(1-(6-methylnicotinamido)cyclohexane-1-carboxamido)-2-oxo-3,3a,4,5,5a,5b,6,7,7a,8,9,10,11,11a,11b,12,13,13a-octadecahydro-2H-cyclopenta[a]chrysen-9-yl)oxy)carbonyl)-2,2-dimethylcyclobutane-1-carboxylic acid]
- viability at 4 days, 0.01 µM: 56%
- viability at 4 days, 0.1 µM: 12%
- viability at 4 days, 1 µM: 4%

SMILES: CC(C)C1=C2[C@H]3CC[C@@H]4[C@@]5(C)CC[C@H](OC(=O)[C@H]6C[C@@H](C(=O)O)C6(C)C)C(C)(C)[C@@H]5CC[C@@]4(C)[C@]3(C)CC[C@@]2(NC(=O)C2(NC(=O)c3ccc(F)cc3)CC2)CC1=O [Example 39, (1R,3S)-3-((((3aR,5aR,5bR,7aR,9S,11aR,11bR,13aS)-3a-(1-(4-fluorobenzamido)cyclopropane-1-carboxamido)-1-isopropyl-5a,5b,8,8,11a-pentamethyl-2-oxo-3,3a,4,5,5a,5b,6,7,7a,8,9,10,11,11a,11b,12,13,13a-octadecahydro-2H-cyclopenta[a]chrysen-9-yl)oxy)carbonyl)-2,2-dimethylcyclobutane-1-carboxylic acid]
- viability at 4 days, 0.01 µM: 29%
- viability at 4 days, 0.1 µM: 2%
- viability at 4 days, 1 µM: 0%

SMILES: Cc1cccnc1C(=O)NC(C)(C)C(=O)N[C@@]12CC[C@]3(C)[C@H](CC[C@@H]4[C@@]5(C)CC[C@H](OC(=O)[C@H]6C[C@@H](C(=O)O)C6(C)C)C(C)(C)[C@@H]5CC[C@]43C)C1=C(C(C)C)C(=O)C2 [Example 29, (1R,3S)-3-((((3aR,5aR,5bR,7aR,9S,11aR,11bR,13aS)-1-isopropyl-5a,5b,8,8,11a-pentamethyl-3a-(2-methyl-2-(3-methylpicolinamido)propanamido)-2-oxo-3,3a,4,5,5a,5b,6,7,7a,8,9,10,11,11a,11b,12,13,13a-octadecahydro-2H-cyclopenta[a]chrysen-9-yl)oxy)carbonyl)-2,2-dimethylcyclobutane-1-carboxylic acid]
- viability at 4 days, 0.01 µM: 29%
- viability at 4 days, 0.1 µM: 3%
- viability at 4 days, 1 µM: 2%

SMILES: CC(C)C1=C2[C@H]3CC[C@@H]4[C@@]5(C)CC[C@H](OC(=O)[C@H]6C[C@@H](C(=O)O)C6(C)C)C(C)(C)[C@@H]5CC[C@@]4(C)[C@]3(C)CC[C@@]2(NC(=O)C(C)(C)NCCN(C)C)CC1=O [Example 73, (1R,3S)-3-((((3aR,5aR,5bR,7aR,9S,11aR,11bR,13aS)-3a-(2-((2-(dimethylamino)ethyl)amino)-2-methylpropanamido)-1-isopropyl-5a,5b,8,8,11a-pentamethyl-2-oxo-3,3a,4,5,5a,5b,6,7,7a,8,9,10,11,11a,11b,12,13,13a-octadecahydro-2H-cyclopenta[a]chrysen-9-yl)oxy)carbonyl)-2,2-dimethylcyclobutane-1-carboxylic acid]
- viability at 4 days, 0.01 µM: 52%
- viability at 4 days, 0.1 µM: 11%
- viability at 4 days, 1 µM: 9%
